Settings: biotinylated peptide binding to gray human hair bundle; streptavidin-HRP/TMB, A450; calculated from Scatchard plots
Method: Then, the streptavidin-horseradish peroxidase (HRP) conjugate (Pierce Chemical Co., Rockford, Ill.) was added to each well (1.0 μg per well), and incubated for 1 h at room temperature, followed by 6 times of washes with TBST. […] The results were plotted as A450 versus the concentration of peptide using GraphPad Prism 4.0 (GraphPad Software, Inc., San Diego, Calif.).

With “PLWRRITKRKLVRPVATLMWYWFTSKR-K(biotin)-NH2 [CXH-G2]” the MB50 was 72 nM.
